We go through one molecule from article PMC3890288, “Toxicity of Functional Nano-Micro Zinc Oxide Tetrapods: Impact of Cell Culture Conditions, Cellular Age and Material Properties” (PLoS ONE, 2014).

For test [1], the system named is normal human dermal fibroblasts (NHDF). The test is described as follows: MTT cell viability (cytotoxicity) assay on NHDF. Particulars: NHDF P6–P9, 50000 cells/cm^2, 24 h treatment. In kind it is cell-based. As to the method: Normal human dermal fibroblasts (NHDF) (PromoCell, C12300) were cultured in Quantum 333 (PAA, U15-813) supplemented with 1% (v/v) penicillin/streptomycin (PAA, P11–010). NHDF are human primary cells which were isolated from the dermis of juvenile foreskin or adult skin with different origins (PromoCell). For stock cultures, 750000 cells in 20 ml medium were seeded weekly into a T75 flask (Sarstedt) and kept at 37°C and 5% CO2 in a humidified atmosphere. The medium was changed every two to three days. For sub-culturing, cells were trypsinized by Trypsin/EDTA (PAA, L11-659). Cells were counted under the microscope.
Powder of ZnO-T was scaled and brought for each experiment fresh into dispersion with culture medium at an initial concentration of 10 mg/ml. […]
The MTT assay was used to estimate the viability of cells by measuring the production of formazan mainly through the activity of cellular mitochondrial dehydrogenase. Cell viability was determined accordingly as described in already published paper, [64]. […] Production of formazan by viable cells was estimated after 90 min (37°C, 5% CO2) by measuring the absorbance at a wavelength of 570 nm (photometer 340 ATTC, SLT Lab instruments, Germany). […]
NHDF cells (passage numbers: P10–P14) were seeded into clear flat 96-well microtiter plates (Falcon® 3072) at a cell density of 50.000 cells/cm^2. […] Cell viability was analysed 24 h later. […]

The test system is the same in test [2]. Description: MTT cell viability (cytotoxicity) assay on NHDF. Type of test: cell-based. Particulars: 24 h treatment, expressed as Zn, read-out: ZnCl2 EC50±SE as Zn (converted).

Like-named read-outs stand apart in the source and are kept apart here.

For orientation: EC50 means the concentration at which the effect is half-maximal. As for `[Cl-].[Cl-].[Zn+2]` [ZnCl2], the “EC50±standard error” value in test [1] came out at 0.036 ± 0.0014 mg/mL. Moreover, the EC50 is 130 ± 10 µM in test [1] (expressed as zinc, read-out: EC50±standard error in Zn^2+); 100 µM in test [2] (P11–P15, 25000 cells/cm^2); 130 µM in test [2] (P11–P15, 100000 cells/cm^2); 110 µM in test [2] (P22–P26, 25000 cells/cm^2); 120 µM in test [2] (P22–P26, 100000 cells/cm^2).
